# Measured values taken from patent US20250051300A1, “GRAM-NEGATIVE SPECIFIC ANTIBIOTICS SPARING EFFECT ON GUT MICROBIOME” (THE BOARD OF TRUSTEES OF THE UNIVERSITY OF ILLINOIS, priority 2021, published 2025).
# Read-outs that look alike come from different tables or passages of the source.
# Key:
# Klebsiella pneumoniae = assay: MIC, micro-dilution broth method (CLSI); type: cell-based
# Escherichia coli = assay: MIC, micro-dilution broth method (CLSI); type: cell-based
# Enterobacter cloacae = assay: MIC, micro-dilution broth method (CLSI); type: cell-based
# [1] = system: Streptococcus parasanguinis; assay: MIC, gut commensal bacteria, micro-dilution broth; conditions: Streptococcus parasanguinis
# Lactobacillus reuteri = assay: MIC, gut commensal bacteria, micro-dilution broth; conditions: Limosilactobacillus reuteri, ATCC23272
# Streptococcus salivarius = assay: MIC, gut commensal bacteria, micro-dilution broth; conditions: Streptococcus salivarius
# Morganella morganii = assay: MIC, gut commensal bacteria, micro-dilution broth; conditions: ATCC25839
# Bacteroides fragilis = assay: MIC, gut commensal bacteria, micro-dilution broth; conditions: Bacteroides fragilis, ATCC25285
# Blautia producta = assay: MIC, gut commensal bacteria, micro-dilution broth; conditions: Blautia producta, ATCC27340
# Enterococcus faecalis = assay: MIC, micro-dilution broth method (CLSI); type: cell-based; conditions: Enterococcus faecalis KLE 2341, BHI-ych; read-out: MIC
# [2] = system: Bacteroides cellulosilyticus; assay: MIC, gut commensal bacteria, micro-dilution broth; conditions: Bacteroides cellulosilyticus
# [3] = system: Faecalibacterium prausnitzii; assay: MIC, gut commensal bacteria, micro-dilution broth; conditions: Faecalibacterium prausnitzii, ATCC27768
# Proteus mirabilis = assay: MIC, gut commensal bacteria, micro-dilution broth; conditions: Proteus mirabilis, ATCC35659
# gut microbiome = assay: Impact on murine fecal microbiome (16S rRNA sequencing); conditions: oral gavage twice a day for three days; feces at days 0, 7, 10, 31
# Bacteroides vulgatus = assay: MIC, gut commensal bacteria, micro-dilution broth; conditions: Phocaeicola vulgatus
# [4] = system: Stenotrophomonas maltophilia; assay: MIC, gut commensal bacteria, micro-dilution broth; conditions: Stenotrophomonas maltophilia, ATCC13637
# Bifidobacterium longum = assay: MIC, gut commensal bacteria, micro-dilution broth; conditions: Bifidobacterium longum, ATCCBAA999
compound,measurement,setting,value
Colistin,MIC,Klebsiella pneumoniae; K. pneumoniae AR0034,0.5 µg/mL
same,MIC,Klebsiella pneumoniae; K. pneumoniae AR0039,0.5 µg/mL
same,MIC,Klebsiella pneumoniae; K. pneumoniae AR0041,0.5 µg/mL
same,MIC,Klebsiella pneumoniae; K. pneumoniae AR0042,0.5 µg/mL
same,MIC,Klebsiella pneumoniae; K. pneumoniae AR0043,0.5 µg/mL
same,MIC,Klebsiella pneumoniae; K. pneumoniae AR0044,0.5 µg/mL
same,MIC,Klebsiella pneumoniae; K. pneumoniae AR0046,4 µg/mL
same,MIC,Klebsiella pneumoniae; K. pneumoniae AR0047,4 µg/mL
same,MIC,Klebsiella pneumoniae; K. pneumoniae AR0049,0.5 µg/mL
same,MIC,Klebsiella pneumoniae; K. pneumoniae AR0066,1 µg/mL
same,MIC,Klebsiella pneumoniae; K. pneumoniae AR0068,0.5 µg/mL
same,MIC,Klebsiella pneumoniae; K. pneumoniae AR0075,0.5 µg/mL
same,MIC,Klebsiella pneumoniae; K. pneumoniae AR0076,0.5 µg/mL
same,MIC,Klebsiella pneumoniae; K. pneumoniae AR0079,0.5 µg/mL
same,MIC,Klebsiella pneumoniae; K. pneumoniae AR0080,0.5 µg/mL
same,MIC,Klebsiella pneumoniae; K. pneumoniae AR0087,4 µg/mL
same,MIC,Klebsiella pneumoniae; K. pneumoniae AR0098,<0.25 µg/mL
same,MIC,Klebsiella pneumoniae; K. pneumoniae AR0106,4 µg/mL
same,MIC,Klebsiella pneumoniae; K. pneumoniae AR0107,<0.25 µg/mL
same,MIC,Klebsiella pneumoniae; K. pneumoniae AR0109,>8 µg/mL
same,MIC,Klebsiella pneumoniae; K. pneumoniae AR0112,0.5 µg/mL
same,MIC,Klebsiella pneumoniae; K. pneumoniae AR0113,0.5 µg/mL
same,MIC,Klebsiella pneumoniae; K. pneumoniae AR0115,0.5 µg/mL
same,MIC,Klebsiella pneumoniae; K. pneumoniae AR0117,1 µg/mL
same,MIC,Klebsiella pneumoniae; K. pneumoniae AR0120,0.5 µg/mL
same,MIC,Klebsiella pneumoniae; K. pneumoniae AR0125,>4 µg/mL
same,MIC,Klebsiella pneumoniae; K. pneumoniae AR0126,0.5 µg/mL
same,MIC,Klebsiella pneumoniae; K. pneumoniae AR0129,0.5 µg/mL
same,MIC,Klebsiella pneumoniae; K. pneumoniae AR0135,0.5 µg/mL
same,MIC,Klebsiella pneumoniae; K. pneumoniae AR0138,2 µg/mL
same,MIC,Klebsiella pneumoniae; K. pneumoniae AR0139,2 µg/mL
same,MIC,Klebsiella pneumoniae; K. pneumoniae AR0140,0.5 µg/mL
same,MIC,Klebsiella pneumoniae; K. pneumoniae AR0141,1 µg/mL
same,MIC,Klebsiella pneumoniae; K. pneumoniae AR0142,0.5 µg/mL
same,MIC,Klebsiella pneumoniae; K. pneumoniae AR0143,1 µg/mL
same,MIC,Klebsiella pneumoniae; K. pneumoniae AR0145,0.5 µg/mL
same,MIC,Klebsiella pneumoniae; K. pneumoniae AR0146,0.5 µg/mL
same,MIC,Klebsiella pneumoniae; K. pneumoniae AR0148,1 µg/mL
same,MIC,Klebsiella pneumoniae; K. pneumoniae AR0152,0.5 µg/mL
same,MIC,Klebsiella pneumoniae; K. pneumoniae AR0153,0.5 µg/mL
same,MIC,Klebsiella pneumoniae; K. pneumoniae AR0158,0.5 µg/mL
same,MIC,Klebsiella pneumoniae; K. pneumoniae AR0160,1 µg/mL
same,MIC,Klebsiella pneumoniae; K. pneumoniae AR0347,<0.25 µg/mL
same,MIC,Klebsiella pneumoniae; K. pneumoniae AR0542,>8 µg/mL
same,MIC,Klebsiella pneumoniae; K. pneumoniae AR0548,0.5 µg/mL
same,MIC,Klebsiella pneumoniae; K. pneumoniae AR0550,<0.25 µg/mL
same,MIC,Klebsiella pneumoniae; K. pneumoniae AR0552,0.5 µg/mL
same,MIC,Klebsiella pneumoniae; K. pneumoniae AR0553,0.5 µg/mL
same,MIC,Klebsiella pneumoniae; K. pneumoniae AR0554,0.5 µg/mL
same,MIC,Klebsiella pneumoniae; K. pneumoniae AR0555,0.5 µg/mL
same,MIC,Klebsiella pneumoniae; K. pneumoniae AR-0040,8 µg/mL
same,MIC,Escherichia coli; E. coli AR0048,0.5 µg/mL
same,MIC,Escherichia coli; E. coli AR0055,1 µg/mL
same,MIC,Escherichia coli; E. coli AR0058,0.5 µg/mL
same,MIC,Escherichia coli; E. coli AR0061,0.5 µg/mL
same,MIC,Escherichia coli; E. coli AR0067,1 µg/mL
same,MIC,Escherichia coli; E. coli AR0069,0.5 µg/mL
same,MIC,Escherichia coli; E. coli AR0077,0.5 µg/mL
same,MIC,Escherichia coli; E. coli AR0081,0.5 µg/mL
same,MIC,Escherichia coli; E. coli AR0084,0.5 µg/mL
same,MIC,Escherichia coli; E. coli AR0085,0.5 µg/mL
same,MIC,Escherichia coli; E. coli AR0086,0.5 µg/mL
same,MIC,Escherichia coli; E. coli AR0089,0.5 µg/mL
same,MIC,Escherichia coli; E. coli AR0104,0.5 µg/mL
same,MIC,Escherichia coli; E. coli AR0114,0.25 µg/mL
same,MIC,Escherichia coli; E. coli AR0118,0.5 µg/mL
same,MIC,Escherichia coli; E. coli AR0119,0.5 µg/mL
same,MIC,Escherichia coli; E. coli AR0128,0.5 µg/mL
same,MIC,Escherichia coli; E. coli AR0137,1 µg/mL
same,MIC,Escherichia coli; E. coli AR0149,0.5 µg/mL
same,MIC,Escherichia coli; E. coli AR0150,0.5 µg/mL
same,MIC,Escherichia coli; E. coli AR0151,0.5 µg/mL
same,MIC,Escherichia coli; E. coli AR0162,0.5 µg/mL
same,MIC,Escherichia coli; E. coli AR0346,4 µg/mL
same,MIC,Escherichia coli; E. coli AR0348,0.25 µg/mL
same,MIC,Escherichia coli; E. coli AR0350,4 µg/mL
same,MIC,Escherichia coli; E. coli AR0493,8 µg/mL
same,MIC,Escherichia coli; E. coli AR0494,8 µg/mL
same,MIC,Escherichia coli; E. coli AR0495,4 µg/mL
same,MIC,Escherichia coli; E. coli AR0541,0.5 µg/mL
same,MIC,Escherichia coli; E. coli AR0543,0.5 µg/mL
same,MIC,Escherichia coli; E. coli AR0546,0.5 µg/mL
same,MIC,Escherichia coli; E. coli AR0551,0.5 µg/mL
same,MIC,Escherichia coli; E. coli AR0559,0.5 µg/mL
same,MIC,Escherichia coli; E. coli AR-0349 (colistin-resistant clinical isolate),8 µg/mL
same,MIC,Escherichia coli; E. coli AR-0549,0.25 µg/mL
same,MIC,Escherichia coli; E. coli ATCC BAA-2340,0.25 µg/mL
same,MIC,Escherichia coli; E. coli ATCC BAA-2469,0.25 µg/mL
same,MIC,Escherichia coli; E. coli ATCC BAA-2471,0.25 µg/mL
same,MIC,Escherichia coli; E. coli ELZ 4004,0.25 µg/mL
same,MIC,Escherichia coli; E. coli ELZ 4017,0.25 µg/mL
same,MIC,Escherichia coli; E. coli ELZ 4042,0.25 µg/mL
same,MIC,Escherichia coli; E. coli ELZ 4072,0.25 µg/mL
same,MIC,Escherichia coli; E. coli ELZ 4081,0.25 µg/mL
same,MIC,Escherichia coli; E. coli ELZ 4139,0.25 µg/mL
same,MIC,Escherichia coli; E. coli ELZ 4239,0.25 µg/mL
same,MIC,Escherichia coli; E. coli ELZ 4277,0.25 µg/mL
same,MIC,Escherichia coli; E. coli ELZ 4346,0.25 µg/mL
same,MIC,Enterobacter cloacae; E. cloacae AR0032,0.5 µg/mL
same,MIC,Enterobacter cloacae; E. cloacae AR0038,0.5 µg/mL
same,MIC,Enterobacter cloacae; E. cloacae AR0050,0.25 µg/mL
same,MIC,Enterobacter cloacae; E. cloacae AR0053,0.5 µg/mL
same,MIC,Enterobacter cloacae; E. cloacae AR0060,0.5 µg/mL
same,MIC,Enterobacter cloacae; E. cloacae AR0065,0.5 µg/mL
same,MIC,Enterobacter cloacae; E. cloacae AR0072,1 µg/mL
same,MIC,Enterobacter cloacae; E. cloacae AR0073,8 µg/mL
same,MIC,Enterobacter cloacae; E. cloacae AR0093,0.5 µg/mL
same,MIC,Enterobacter cloacae; E. cloacae AR0132,1 µg/mL
same,MIC,Enterobacter cloacae; E. cloacae AR0136,0.5 µg/mL
same,MIC,Enterobacter cloacae; E. cloacae AR0154,0.5 µg/mL
same,MIC,Enterobacter cloacae; E. cloacae AR0164,0.5 µg/mL
same,MIC,Enterobacter cloacae; E. cloacae AR0544,0.25 µg/mL
same,MIC,Enterobacter cloacae; E. cloacae AR0545,0.5 µg/mL
same,MIC,Enterobacter cloacae; E. cloacae AR-0163,16 µg/mL
same,MIC,Enterobacter cloacae; E. cloacae ATCC BAA-2341,0.5 µg/mL
same,MIC,Enterobacter cloacae; E. cloacae ATCC BAA-2468,0.25 µg/mL
"Cc1cc(-c2nc(C(C)(C)C)[nH]c2-c2ccc3c(c2)OCCO3)ccn1 [Compound 1, 4-(2-(tert-butyl)-5-(2,3-dihydrobenzo[b][1,4]dioxin-6-yl)-1H-imidazol-4-yl)-2-methylpyridine]",MIC,"Klebsiella pneumoniae; Klebsiella pneumoniae, ATCC27736, K. pneumoniae ATCC 27736, read-out: MIC",16 µg/mL
same,MIC,"Klebsiella pneumoniae; Klebsiella pneumoniae, ATCCBAA1705, K. pneumoniae ATCC BAA-1705, read-out: MIC",> 128 µg/mL
same,MIC,"Klebsiella pneumoniae; Klebsiella pneumoniae, K. pneumoniae AR-0040, read-out: MIC",32 µg/mL
same,MIC,"Escherichia coli; Escherichia coli, ATCC25922, E. coli ATCC 25922, read-out: MIC",8 µg/mL
same,MIC,"Escherichia coli; Escherichia coli, E. coli AR-0549, read-out: MIC",16 µg/mL
same,MIC,"Escherichia coli; Escherichia coli, E. coli ΔrfaC JW3596 (permeability mutant)",0.25 µg/mL
same,MIC,"Escherichia coli; Escherichia coli, E. coli ΔtolC JW5503 (efflux-deficient)",0.03 µg/mL
same,MIC,"Enterobacter cloacae; Enterobacter cloacae, ATCC29893, E. cloacae ATCC 29893, read-out: MIC",> 128 µg/mL
same,MIC,"Enterobacter cloacae; Enterobacter cloacae, ATCCBAA2468, E. cloacae ATCC BAA-2468, read-out: MIC",32 µg/mL
same,MIC,"Enterobacter cloacae; Enterobacter cloacae, E. cloacae AR-0163, read-out: MIC",64 µg/mL
CCC[C@@H]1C[C@@H](C(=O)N[C@@H]([C@H]2O[C@H](SC)[C@H](O)[C@@H](O)[C@H]2O)[C@H](C)Cl)N(C)C1 [Clindamycin],MIC,[1],0.06 µg/mL
same,MIC,Lactobacillus reuteri,0.25 µg/mL
same,MIC,Streptococcus salivarius,2 µg/mL
same,MIC,Morganella morganii,> 128 µg/mL
same,MIC,Bacteroides fragilis,4 µg/mL
same,MIC,Blautia producta,1 µg/mL
same,MIC,Enterococcus faecalis,1 µg/mL
same,MIC,[2],> 128 µg/mL
same,MIC,[3],0.25 µg/mL
same,MIC,Proteus mirabilis,0.125 µg/mL
same,effect on gut microbiome taxonomic composition,gut microbiome,large decreases in the members of Bacilli and Bacteroidia
same,MIC,Bacteroides vulgatus,16 µg/mL
same,MIC,[4],0.5 µg/mL
same,MIC,Bifidobacterium longum,0.5 µg/mL
CC1(C)S[C@@H]2[C@H](NC(=O)[C@H](N)c3ccc(O)cc3)C(=O)N2[C@H]1C(=O)O [Amoxicillin],MIC,[1],64 µg/mL
same,MIC,Lactobacillus reuteri,1 µg/mL
same,MIC,Streptococcus salivarius,0.125 µg/mL
same,MIC,Morganella morganii,32 µg/mL
same,MIC,Bacteroides fragilis,128 µg/mL
same,MIC,Blautia producta,1 µg/mL
same,MIC,Enterococcus faecalis,0.25 µg/mL
same,MIC,[2],> 128 µg/mL
same,MIC,[3],64 µg/mL
same,MIC,Proteus mirabilis,0.008 µg/mL
same,effect on gut microbiome taxonomic composition,gut microbiome,increases in members of Bacteroidia
same,MIC,Bacteroides vulgatus,2 µg/mL
same,MIC,[4],> 128 µg/mL
same,MIC,Bifidobacterium longum,1 µg/mL
